Reference: BigSolDB 2.1

C[C@@H]1O[C@@H](O[C@H]2[C@H](Oc3cc(O)c4c(c3)O[C@H](c3ccc(O)cc3)CC4=O)O[C@H](CO)[C@@H](O)[C@@H]2O)[C@H](O)[C@H](O)[C@H]1O
solubility (mole fraction)
Conditions	283.15 K	288.15 K	293.15 K	298.15 K	303.15 K	308.15 K	313.15 K	318.15 K
in ethanol	2.26e-05	2.57e-05	3.45e-05	4.05e-05	5.17e-05	6.25e-05	7.96e-05	0.000102
in water	6.21e-07	7.14e-07	9.76e-07	2.87e-06	6.15e-06	1.1e-05	1.55e-05	2.32e-05
